# Experimental data from US20110237686A1, “FORMULATIONS AND METHODS OF USE” (Cerulean Pharma Inc, priority 2010, published 2011).
# pIC50: −log10 of the molar value. Several values for one entry are separate records, joined by “and”; a condition that tells them apart may be missing. Identical values can stand only once.
# Tests used:
# [1] = test system: MDA-MB-435 melanoma human xenograft model; experiment: In vivo efficacy in MDA-MB-435 melanoma human xenograft model; set-up: species or system mouse
# Experimental: MDA-MB-435 cells were grown in culture to confluency in RPMI medium containing 10% FBS and 1% penicillin/streptomycin and then resuspended in RPMI (passage 4) for implantation into mice. A volume of 0.1 mL containing 4.0×10^6 cells MDA-MB-435 cells were implanted into the mammary gland of female CD-1 nude mice on Day 1.
# B16.F10 cells = experiment: CellTiter-Glo Luminescent Cell Viability Assay (cytotoxicity of nanoparticles); assay type: cell-based, mouse; settings: Mus musculus; B16.F10 cells; 24, 48 and 72 hours of incubation tested, time of the IC50 not stated
# Experimental: The Cytotoxicity of nanoparticles formed from polymer drug conjugates was evaluated using the following protocol. […] B16.F10 cells, grown to 85-90% confluency in 150 cm^2 flasks (passage<30), were resuspended in media (MEM-alpha, 10% HI-FBS, 1× antibiotic-antimycotic) and added to 96-well opaque-clear bottom plates at a concentration of 1500 cells/well in 200 μL/well. The cells were incubated at 37° C. with 5% CO2 for 24 hours. The following day, serial dilutions of 2×concentrated particles and 2× concentrated free drug were made in 12-well reservoirs with media to specified concentrations. The media in the plates was replaced with 100 μL of fresh media and 100 μL of the corresponding serially diluted drug. Three sets of plates were prepared with duplicate treatments. Following 24, 48 and 72 hours of incubation at 37° C. with 5% CO2, the media in the plates was replaced with 100 μL of fresh media and […] of CTG solution, and then incubated for 5 minutes on a plate shaker at room temperature set to 450 rpm and allowed to rest for 15 minutes. Viable cells were measured by luminescence using a microtiter plate reader. The data was plotted as % viability vs. concentration and standardized to untreated cells.
# [2] = test system: HCT-116 colon xenograft model; experiment: In vivo efficacy in HCT-116 colon xenograft model; set-up: species or system mouse; settings: 30 mg/kg IV; male CD-1 nude mice
# Experimental: HCT-116 cells were grown in culture to confluency in McCoy's 5a medium containing 10% FBS and 1% penicillin/streptomycin and then resuspended in McCoy's 5a (passage 4).
# The treatments were administered 1V into the tail vein at the respective dose volumes (refer to previous paragraph), beginning on post-implantation Day 13, when the mean tumor volume was 131 mm3.
# [3] = test system: B16.F10 murine melanoma model; experiment: Efficacy and tolerability of PEGylated docetaxel-5050 PLGA-O-acetyl nanoparticles in B16.F10 murine melanoma model; assay type: in vivo, mouse
# Experimental: Refer to table for detailed description of formulations.
# Tumor volume was calculated with the following equation: (width×width×length)/2 mm3.
# [4] = test system: normal male C57BL/6 non-tumor-bearing mice; experiment: Tolerability in normal non-tumor-bearing mice (body weight, CBC, serum chemistry, ataxia, sciatic nerve histology); assay type: in vivo, mouse; settings: for Lymphocyte mean / Neutrophil mean / WBC # mean: blood Day 14; for mice developing ataxia / Ataxia (%): n=5/group; for Ataxia (%): intravenous q7d×2, male C57BL/6 mice, to Day 14
# Experimental: Treatments were administered intravenously on a q7d×2 schedule, i.e., two treatments seven days apart (the first treatment was on Day one). The study ended on Day 14, six days after the 2nd treatment. Blood was collected for complete blood count (CBC) and serum chemistry. Leg muscles were collected so that nerve degeneration could be assessed from the sciatic nerve.
# [5] = test system: SK-OV-3 ovarian human xenograft model; experiment: In vivo efficacy in SK-OV-3 ovarian human xenograft model; set-up: species or system mouse
# Experimental: SK-OV-3 cells were grown in culture to confluency in RPMI medium containing 10% FBS and 1% penicillin/streptomycin and then resuspended in RPMI (passage 4) for implantation into mice. […]
# [6] = q4dq3dx3, 15 mg/kg IV, male C57BL/6 mice
# [7] = q7d schedule, three times once every week, 15 mg/kg
compound,measurement,setting,value
"CC(=O)O[C@@]12CO[C@@H]1C[C@H](O)[C@@]1(C)C(=O)[C@H](O)C3=C(C)[C@@H](OC(=O)[C@H](O)[C@@H](NC(=O)OC(C)(C)C)c4ccccc4)C[C@@](O)([C@@H](OC(=O)c4ccccc4)[C@H]21)C3(C)C [Free docetaxel, docetaxel]",Maximum body weight loss,[1]; 15 mg/kg IV Days 21 and 28 (weekly×2),10%
same,Maximum body weight loss,[1]; 30 mg/kg IV Days 21 and 28 (weekly×2),14%
same,ataxia,[1]; 30 mg/kg weekly×2,did not cause ataxia
same,body weight loss,"[1]; 60 mg/kg IV Days 21 and 28 (weekly×2), female CD-1 nude mice",greater than 20%
same,ataxia,"[1]; 60 mg/kg weekly×2, listed as docetaxel",developed ataxia
same,ataxia,"[1]; 60 mg/kg weekly×2, listed as free docetaxel",Ataxia was observed
same,pIC50,B16.F10 cells,6.89
same,Maximum body weight loss,[2],14%
same,Maximum body weight loss,"[3]; q3dq4dx3, 15 mg/kg IV, male C57BL/6 mice, listed as Docetaxel",12% and 11%
same,Maximum body weight loss,"[3]; q3dq4dx3, 15 mg/kg IV, male C57BL/6 mice, listed as docetaxel",12% and 11%
same,Maximum body weight loss,[3]; [6],11%
same,Tumor growth delay (TGD),[3]; [6],11 days
same,Tumor growth inhibition (TGI),[3]; [6],90%
same,Maximum body weight loss,"[3]; q7dx3, 30 mg/kg IV, male C57BL/6 mice",11%
same,Maximum body weight loss,"[3]; q14dx2, 60 mg/kg IV, male C57BL/6 mice, listed as Docetaxel",0%
same,Maximum body weight loss,"[3]; q14dx2, 60 mg/kg IV, male C57BL/6 mice, listed as docetaxel",did not show any body weight loss
same,Maximum body weight loss,[3]; [7],11%
same,TGD,[3]; [7],11 days
same,body weight above initial on Day 14,[4]; 30 mg/kg IV q7d×2,3%
same,Lymphocyte mean,[4]; 30 mg/kg IV q7d×2,4350 cells/μL
same,Neutrophil mean,[4]; 30 mg/kg IV q7d×2,556 cells/μL
same,WBC # mean,[4]; 30 mg/kg IV q7d×2,5.1 ×1000 cells/μL
same,mice developing ataxia,[4]; 30 mg/kg IV q7d×2,no mice
same,body weight above initial on Day 14,[4]; 45 mg/kg IV q7d×2,2%
same,Lymphocyte mean,[4]; 45 mg/kg IV q7d×2,6780 cells/μL
same,Neutrophil mean,[4]; 45 mg/kg IV q7d×2,752 cells/μL
same,WBC # mean,[4]; 45 mg/kg IV q7d×2,7.8 ×1000 cells/μL
same,mice developing ataxia,"[4]; 45 mg/kg IV q7d×2, Day 14",One mouse
same,"body weight lost after the second treatment, by the end of the study","[4]; 60 mg/kg IV q7d×2, Day 14",19%
same,Lymphocyte mean,[4]; 60 mg/kg IV q7d×2,5590 cells/μL
same,Neutrophil mean,[4]; 60 mg/kg IV q7d×2,470 cells/μL
same,WBC # mean,[4]; 60 mg/kg IV q7d×2,6.2 ×1000 cells/μL
same,mice developing ataxia,[4]; 60 mg/kg IV q7d×2,Five out of five mice
same,Ataxia (%),[4]; dose 30 mg/kg,0%
same,Ataxia (%),[4]; dose 45 mg/kg,20%
same,Ataxia (%),[4]; dose 60 mg/kg,100%
same,serum chemistry parameters,[4]; doses up to 60 mg/kg,did not affect any serum chemistry parameter
same,Maximum body weight loss,[5]; 30 mg/kg weekly×2,13%
same,ataxia,[5]; 30 mg/kg weekly×2,did not cause ataxia
same,body weight loss,"[5]; 60 mg/kg IV Days 51 and 58 (weekly×2), female CD-1 nude mice",greater than 20%
same,ataxia,"[5]; 60 mg/kg weekly×2, four days after the second treatment",observed in all the mice
